Values quoted from earlier work in US20080031932A1, “Transdermal atomoxetine formulations and associated methods” (Watson Laboratories, Inc., priority 2006, published 2008).

Assays:
[1] = molecular target: norepinephrine reuptake transporter (Homo sapiens, UniProt P23975); conditions: compared to atomoxetine
serotonin reuptake = serotonin reuptake (Homo sapiens, UniProt P31645)
Chain of serotonin reuptake (P31645 whole entry): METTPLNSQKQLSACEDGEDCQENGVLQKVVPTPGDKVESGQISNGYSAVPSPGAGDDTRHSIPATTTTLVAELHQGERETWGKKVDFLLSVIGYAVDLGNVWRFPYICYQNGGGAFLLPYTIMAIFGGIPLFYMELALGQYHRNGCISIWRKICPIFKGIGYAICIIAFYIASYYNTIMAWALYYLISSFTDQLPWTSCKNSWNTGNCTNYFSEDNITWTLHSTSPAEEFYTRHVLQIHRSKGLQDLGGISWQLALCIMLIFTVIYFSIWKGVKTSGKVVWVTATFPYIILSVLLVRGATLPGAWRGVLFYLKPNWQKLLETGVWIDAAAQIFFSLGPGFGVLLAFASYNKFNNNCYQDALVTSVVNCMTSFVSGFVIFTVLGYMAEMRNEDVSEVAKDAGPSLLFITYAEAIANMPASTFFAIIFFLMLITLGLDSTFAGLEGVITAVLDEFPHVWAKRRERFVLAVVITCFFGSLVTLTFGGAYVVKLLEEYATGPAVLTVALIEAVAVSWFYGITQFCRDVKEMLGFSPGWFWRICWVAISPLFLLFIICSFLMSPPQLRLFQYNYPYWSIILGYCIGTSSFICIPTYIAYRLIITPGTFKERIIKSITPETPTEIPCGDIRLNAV

Chain of norepinephrine reuptake transporter (P23975 whole entry): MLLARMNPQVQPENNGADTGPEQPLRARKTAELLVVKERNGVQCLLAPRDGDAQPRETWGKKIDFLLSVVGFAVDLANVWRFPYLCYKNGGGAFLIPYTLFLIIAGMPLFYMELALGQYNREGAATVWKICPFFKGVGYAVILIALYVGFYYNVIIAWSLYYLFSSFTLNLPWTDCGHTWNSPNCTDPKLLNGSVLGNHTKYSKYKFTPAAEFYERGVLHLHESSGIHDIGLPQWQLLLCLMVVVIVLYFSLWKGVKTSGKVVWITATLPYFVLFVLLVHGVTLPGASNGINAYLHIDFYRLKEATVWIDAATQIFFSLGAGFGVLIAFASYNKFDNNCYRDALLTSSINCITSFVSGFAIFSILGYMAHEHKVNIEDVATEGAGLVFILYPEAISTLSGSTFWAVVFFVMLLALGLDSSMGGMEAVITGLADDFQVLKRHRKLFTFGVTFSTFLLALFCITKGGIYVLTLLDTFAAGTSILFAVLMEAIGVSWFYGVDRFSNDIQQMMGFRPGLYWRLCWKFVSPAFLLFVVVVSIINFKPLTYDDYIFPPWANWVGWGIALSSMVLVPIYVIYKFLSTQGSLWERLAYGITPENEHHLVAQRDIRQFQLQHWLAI

SMILES | affinity to other receptor systems (other receptor systems) | inhibitory activity to the norepinephrine reuptake transporter [1] | plasma half-life (individuals having normal activity in the CYP2D6 pathway) | half-life (individuals with reduced activity in the CYP2D6 pathway (poor metabolizers)) | serotonin reuptake inhibition (serotonin reuptake)
Cc1ccccc1OC(CCN)c1ccccc1 (stereo not drawn) [NDA, N-desmethylatomoxetine] | little affinity | less active | – | – | –
CNCCC(Oc1ccccc1C)c1ccccc1 (single isomer, unassigned; (-)) [atomoxetine, (−)-N-methyl-3-phenyl-3-(o-tolyloxy)-propylamine] | – | – | about 5 hours | about 24 hours | –
CNCCC(Oc1ccc(O)cc1C)c1ccccc1 (stereo not drawn) [Example 4HA, 4-hydroxyatomoxetine] | little affinity | – | – | – | pharmacologically active serotonin reuptake inhibitor
